Reference: ChEMBL document CHEMBL3991601, “The target landscape of clinical kinase drugs” (Science, 2017)
The source made the active and inactive calls. On the calls: in the data inactive means no Kd found up to 30 µM.

Key:
[1] = biological target: Eukaryotic peptide chain release factor GTP-binding subunit ERF3B (Homo sapiens, UniProt Q8IYD1)
[2] = biological target: ALK tyrosine kinase receptor (Homo sapiens, UniProt Q9UM73); assay type: subcellular, K-562, COLO 205, SK-N-BE(2) and MV-4-11, Cell lysate; conditions: read-out: Kd apparent
[3] = biological target: T1, Tyrosine-protein kinase Mer (Homo sapiens, UniProt Q12866)
T1 sequence (Q12866 whole entry): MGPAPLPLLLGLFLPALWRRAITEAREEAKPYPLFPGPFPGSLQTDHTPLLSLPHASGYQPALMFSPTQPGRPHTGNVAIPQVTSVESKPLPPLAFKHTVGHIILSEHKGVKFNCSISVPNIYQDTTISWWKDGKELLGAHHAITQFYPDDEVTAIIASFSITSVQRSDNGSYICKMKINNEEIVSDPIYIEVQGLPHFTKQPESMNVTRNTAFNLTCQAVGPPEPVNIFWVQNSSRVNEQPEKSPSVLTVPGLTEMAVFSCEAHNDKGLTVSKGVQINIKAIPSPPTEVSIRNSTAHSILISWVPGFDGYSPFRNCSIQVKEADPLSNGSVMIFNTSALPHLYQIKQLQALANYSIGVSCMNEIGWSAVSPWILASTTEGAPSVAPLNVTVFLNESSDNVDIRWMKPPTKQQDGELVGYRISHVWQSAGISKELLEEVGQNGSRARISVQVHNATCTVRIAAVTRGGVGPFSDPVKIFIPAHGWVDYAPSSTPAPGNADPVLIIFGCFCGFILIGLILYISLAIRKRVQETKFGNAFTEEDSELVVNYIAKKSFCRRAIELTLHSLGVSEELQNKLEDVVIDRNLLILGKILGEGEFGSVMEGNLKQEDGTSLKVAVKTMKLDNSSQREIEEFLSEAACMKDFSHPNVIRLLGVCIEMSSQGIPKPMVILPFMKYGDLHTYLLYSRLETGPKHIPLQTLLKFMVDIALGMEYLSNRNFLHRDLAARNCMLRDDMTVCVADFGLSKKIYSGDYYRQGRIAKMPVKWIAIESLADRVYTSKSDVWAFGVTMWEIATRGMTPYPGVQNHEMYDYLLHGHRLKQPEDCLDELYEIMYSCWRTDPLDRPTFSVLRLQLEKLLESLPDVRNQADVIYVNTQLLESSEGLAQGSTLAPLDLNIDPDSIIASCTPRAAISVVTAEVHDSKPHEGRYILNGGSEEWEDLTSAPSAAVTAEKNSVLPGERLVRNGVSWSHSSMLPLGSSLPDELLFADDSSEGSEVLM

[4] = biological target: MAP kinase-activated protein kinase 3 (Homo sapiens, UniProt Q16644)
[5] = biological target: Tyrosine-protein kinase JAK2 (Homo sapiens, UniProt O60674)
[6] = biological target: T2, Dual specificity mitogen-activated protein kinase kinase 4 (Homo sapiens, UniProt P45985)
T2 sequence (P45985 whole entry): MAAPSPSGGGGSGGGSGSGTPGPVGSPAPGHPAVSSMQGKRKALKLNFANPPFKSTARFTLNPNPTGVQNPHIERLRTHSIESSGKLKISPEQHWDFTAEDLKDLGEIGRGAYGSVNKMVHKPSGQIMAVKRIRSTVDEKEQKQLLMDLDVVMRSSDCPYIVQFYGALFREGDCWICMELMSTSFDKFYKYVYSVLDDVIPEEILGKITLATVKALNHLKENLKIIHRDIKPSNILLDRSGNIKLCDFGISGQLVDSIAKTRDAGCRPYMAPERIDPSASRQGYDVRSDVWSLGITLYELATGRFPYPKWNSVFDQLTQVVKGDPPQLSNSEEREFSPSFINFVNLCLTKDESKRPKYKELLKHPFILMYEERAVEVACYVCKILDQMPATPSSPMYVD

[7] = biological target: Serine/threonine-protein kinase 38 (Homo sapiens, UniProt Q15208)
[8] = biological target: Dual specificity tyrosine-phosphorylation-regulated kinase 1B (Homo sapiens, UniProt Q9Y463)
[9] = biological target: Tyrosine-protein kinase Fgr (Homo sapiens, UniProt P09769)
[10] = biological target: Cyclin-dependent kinase 10 (Homo sapiens, UniProt Q15131)
Sequence of Cyclin-dependent kinase 10 (Q15131 whole entry): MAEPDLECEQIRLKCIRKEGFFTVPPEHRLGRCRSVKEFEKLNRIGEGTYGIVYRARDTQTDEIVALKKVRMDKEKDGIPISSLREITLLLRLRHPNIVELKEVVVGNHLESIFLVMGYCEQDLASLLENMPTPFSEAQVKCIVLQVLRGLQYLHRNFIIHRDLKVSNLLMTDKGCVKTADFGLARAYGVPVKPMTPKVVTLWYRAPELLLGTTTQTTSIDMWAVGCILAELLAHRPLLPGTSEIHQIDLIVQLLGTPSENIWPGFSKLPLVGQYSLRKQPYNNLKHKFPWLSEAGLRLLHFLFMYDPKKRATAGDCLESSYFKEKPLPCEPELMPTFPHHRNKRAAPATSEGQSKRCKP

Sequence of Serine/threonine-protein kinase 38 (Q15208 whole entry): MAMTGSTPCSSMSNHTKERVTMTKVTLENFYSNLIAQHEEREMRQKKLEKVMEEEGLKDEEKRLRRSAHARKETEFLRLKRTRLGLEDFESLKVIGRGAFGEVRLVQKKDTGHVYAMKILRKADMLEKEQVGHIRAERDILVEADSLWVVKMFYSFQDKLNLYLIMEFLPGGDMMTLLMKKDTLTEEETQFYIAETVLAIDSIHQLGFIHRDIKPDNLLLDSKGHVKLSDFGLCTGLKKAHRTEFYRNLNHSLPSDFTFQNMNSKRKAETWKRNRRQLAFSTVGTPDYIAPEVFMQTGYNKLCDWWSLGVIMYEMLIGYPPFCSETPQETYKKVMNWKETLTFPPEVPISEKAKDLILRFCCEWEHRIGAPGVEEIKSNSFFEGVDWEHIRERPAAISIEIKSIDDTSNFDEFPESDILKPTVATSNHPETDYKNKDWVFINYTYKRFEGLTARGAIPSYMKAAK
Sequence of Tyrosine-protein kinase JAK2 (O60674 whole entry): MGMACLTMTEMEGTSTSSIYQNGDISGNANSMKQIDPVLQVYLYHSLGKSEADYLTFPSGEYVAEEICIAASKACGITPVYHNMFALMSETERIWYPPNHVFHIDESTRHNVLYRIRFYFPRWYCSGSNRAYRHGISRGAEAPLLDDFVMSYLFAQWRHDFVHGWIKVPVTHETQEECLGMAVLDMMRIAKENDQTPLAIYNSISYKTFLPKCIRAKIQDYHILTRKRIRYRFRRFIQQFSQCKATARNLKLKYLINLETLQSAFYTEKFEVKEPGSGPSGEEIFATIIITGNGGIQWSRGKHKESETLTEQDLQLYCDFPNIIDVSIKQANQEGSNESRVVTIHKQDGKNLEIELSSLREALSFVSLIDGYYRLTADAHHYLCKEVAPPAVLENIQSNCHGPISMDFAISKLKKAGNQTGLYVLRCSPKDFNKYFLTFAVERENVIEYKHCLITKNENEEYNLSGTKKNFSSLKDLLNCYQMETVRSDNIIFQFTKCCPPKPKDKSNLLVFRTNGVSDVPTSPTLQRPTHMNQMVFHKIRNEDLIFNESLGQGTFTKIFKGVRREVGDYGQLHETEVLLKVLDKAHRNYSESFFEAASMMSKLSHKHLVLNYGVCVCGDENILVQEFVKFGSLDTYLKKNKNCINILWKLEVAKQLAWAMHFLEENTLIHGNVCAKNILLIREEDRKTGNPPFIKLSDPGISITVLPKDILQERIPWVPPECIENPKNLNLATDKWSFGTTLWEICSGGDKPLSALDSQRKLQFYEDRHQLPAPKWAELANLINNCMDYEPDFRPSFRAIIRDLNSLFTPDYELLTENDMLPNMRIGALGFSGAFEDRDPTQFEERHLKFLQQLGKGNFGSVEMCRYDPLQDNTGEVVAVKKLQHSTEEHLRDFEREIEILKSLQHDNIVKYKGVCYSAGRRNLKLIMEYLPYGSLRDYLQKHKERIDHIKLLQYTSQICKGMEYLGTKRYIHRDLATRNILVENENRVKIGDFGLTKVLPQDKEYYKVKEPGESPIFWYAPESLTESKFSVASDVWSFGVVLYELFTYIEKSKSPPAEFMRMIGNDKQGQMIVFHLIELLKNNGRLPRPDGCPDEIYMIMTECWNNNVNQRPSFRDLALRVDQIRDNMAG
Sequence of MAP kinase-activated protein kinase 3 (Q16644 whole entry): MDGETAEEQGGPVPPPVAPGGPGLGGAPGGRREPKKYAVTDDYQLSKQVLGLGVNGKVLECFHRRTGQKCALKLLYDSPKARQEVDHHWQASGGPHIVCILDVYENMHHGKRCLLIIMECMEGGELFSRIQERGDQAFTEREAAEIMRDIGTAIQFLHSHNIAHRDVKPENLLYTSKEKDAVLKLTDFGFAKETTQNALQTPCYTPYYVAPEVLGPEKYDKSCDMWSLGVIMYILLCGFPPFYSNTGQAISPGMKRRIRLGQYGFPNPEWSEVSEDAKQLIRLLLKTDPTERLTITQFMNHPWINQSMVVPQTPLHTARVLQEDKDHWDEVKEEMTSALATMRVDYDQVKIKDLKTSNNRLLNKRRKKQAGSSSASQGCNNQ
Sequence of Tyrosine-protein kinase Fgr (P09769 whole entry): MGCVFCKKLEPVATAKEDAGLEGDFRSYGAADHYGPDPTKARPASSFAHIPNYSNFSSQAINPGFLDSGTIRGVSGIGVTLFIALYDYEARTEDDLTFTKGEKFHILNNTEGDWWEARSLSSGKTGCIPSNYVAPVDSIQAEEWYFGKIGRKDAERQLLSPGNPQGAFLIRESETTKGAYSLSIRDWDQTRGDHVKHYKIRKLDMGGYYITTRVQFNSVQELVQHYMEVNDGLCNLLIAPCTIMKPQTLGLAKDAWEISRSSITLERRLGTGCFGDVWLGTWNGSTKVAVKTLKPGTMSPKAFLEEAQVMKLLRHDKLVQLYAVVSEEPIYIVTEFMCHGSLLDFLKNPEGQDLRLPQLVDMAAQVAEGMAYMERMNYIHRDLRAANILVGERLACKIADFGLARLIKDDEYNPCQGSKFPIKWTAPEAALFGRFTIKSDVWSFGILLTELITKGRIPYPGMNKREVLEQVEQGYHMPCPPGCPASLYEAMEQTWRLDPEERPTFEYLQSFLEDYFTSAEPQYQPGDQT
Sequence of Eukaryotic peptide chain release factor GTP-binding subunit ERF3B (Q8IYD1 whole entry): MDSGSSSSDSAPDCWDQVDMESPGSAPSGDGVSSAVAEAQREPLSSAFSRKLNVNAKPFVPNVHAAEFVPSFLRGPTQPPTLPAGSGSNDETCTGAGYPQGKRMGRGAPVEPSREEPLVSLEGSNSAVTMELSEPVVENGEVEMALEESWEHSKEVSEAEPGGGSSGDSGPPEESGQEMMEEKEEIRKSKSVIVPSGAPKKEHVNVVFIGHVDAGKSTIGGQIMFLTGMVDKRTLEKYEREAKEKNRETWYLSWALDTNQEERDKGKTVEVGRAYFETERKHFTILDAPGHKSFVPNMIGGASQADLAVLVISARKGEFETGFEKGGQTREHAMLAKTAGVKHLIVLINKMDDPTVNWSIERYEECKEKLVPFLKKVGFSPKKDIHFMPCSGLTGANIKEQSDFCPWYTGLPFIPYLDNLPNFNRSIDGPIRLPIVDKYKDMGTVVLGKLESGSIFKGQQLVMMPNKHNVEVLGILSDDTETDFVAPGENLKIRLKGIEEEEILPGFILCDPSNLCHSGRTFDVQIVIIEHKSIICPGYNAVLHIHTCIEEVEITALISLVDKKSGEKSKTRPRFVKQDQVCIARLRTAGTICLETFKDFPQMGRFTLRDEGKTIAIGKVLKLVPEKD
Sequence of Dual specificity tyrosine-phosphorylation-regulated kinase 1B (Q9Y463 whole entry): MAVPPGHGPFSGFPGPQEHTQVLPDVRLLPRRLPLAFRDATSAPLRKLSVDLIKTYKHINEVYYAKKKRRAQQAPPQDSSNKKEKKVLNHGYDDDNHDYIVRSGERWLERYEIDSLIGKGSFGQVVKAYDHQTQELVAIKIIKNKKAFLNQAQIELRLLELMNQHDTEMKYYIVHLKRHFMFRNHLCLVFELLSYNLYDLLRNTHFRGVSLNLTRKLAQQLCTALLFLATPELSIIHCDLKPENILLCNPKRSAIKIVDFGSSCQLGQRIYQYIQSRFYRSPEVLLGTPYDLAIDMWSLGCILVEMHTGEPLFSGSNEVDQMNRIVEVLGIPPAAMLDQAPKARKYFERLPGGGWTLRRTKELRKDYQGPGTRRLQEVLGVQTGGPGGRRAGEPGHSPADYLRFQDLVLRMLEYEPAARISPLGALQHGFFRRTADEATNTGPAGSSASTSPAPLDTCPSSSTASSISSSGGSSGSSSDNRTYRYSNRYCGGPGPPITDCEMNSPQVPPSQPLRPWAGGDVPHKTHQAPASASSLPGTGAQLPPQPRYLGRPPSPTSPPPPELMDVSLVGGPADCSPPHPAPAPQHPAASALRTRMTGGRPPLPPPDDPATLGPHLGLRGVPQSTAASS

Structure (SMILES)	Kd [3]	Kd [4]	Kd [6]	Kd [7]	other results
N[C@@H]1CCCN(c2c(/C=C3\SC(=O)NC3=O)cccc2-c2ccccc2)C1	–	–	–	–	Kd [1]: > 30 µM (inactive)
Cc1ccc(S(=O)(=O)Nc2nc3ccccc3nc2Nc2ccc3nsnc3c2)cc1	> 30 µM (inactive)	–	–	–	Kd [2]: > 30 µM (inactive)
CCN1CCN(Cc2ccc(-c3cc4c(N[C@H](C)c5ccccc5)ncnc4[nH]3)cc2)CC1 [AEE-788]	> 30 µM (inactive)	> 30 µM (inactive)	–	–	Kd [2]: > 30 µM (inactive)
CNS(=O)(=O)Nc1nccc(Cc2c(C)c3ccc(Oc4ncccn4)cc3oc2=O)c1F [AVUTOMETINIB]	–	> 30 µM (inactive)	> 30 µM (inactive)	–	Kd [5]: > 30 µM (inactive)
Cc1cc([C@@H](C)Nc2ccccc2C(=O)O)c2nc(N3CCOCC3)cc(=O)n2c1 [AZD-6482]	> 30 µM (inactive)	–	> 30 µM (inactive)	> 30 µM (inactive)	–
COc1ccc(-c2ccc3c(N4CCOC[C@@H]4C)nc(N4CCOC[C@@H]4C)nc3n2)cc1CO [AZD-8055]	–	–	> 30 µM (inactive)	–	Kd [8]: > 30 µM (inactive)
C[C@@H](Nc1cc(F)cc(F)c1)c1cc(C(=O)N(C)C)cc2c(=O)cc(N3CCOCC3)oc12 [AZD-8186]	–	–	–	> 30 µM (inactive)	–
Cc1cc2c(F)c(Oc3ncnn4cc(OC[C@@H](C)OC(=O)[C@H](C)N)c(C)c34)ccc2[nH]1 [BRIVANIB ALANINATE]	–	> 30 µM (inactive)	> 30 µM (inactive)	–	Kd [8]: > 30 µM (inactive); Kd [5]: > 30 µM (inactive)
Cc1nc(N)sc1-c1ccnc(Nc2ccc(N3CCOCC3)cc2)n1 [CYC-116]	–	–	> 30 µM (inactive)	–	Kd [9]: > 30 µM (inactive)
CN1CCN(c2ccc3nc(-c4c(N)c5c(F)cccc5[nH]c4=O)[nH]c3c2)CC1 [DOVITINIB]	–	–	–	–	Kd [10]: > 30 µM (inactive)
COC(=O)N[C@@H](C)CNc1nccc(-c2cn(C(C)C)nc2-c2cc(Cl)cc(NS(C)(=O)=O)c2F)n1 [ENCORAFENIB]	> 30 µM (inactive)	–	–	–	Kd [10]: > 30 µM (inactive); Kd [8]: > 30 µM (inactive); Kd [1]: > 30 µM (inactive); Kd [5]: > 30 µM (inactive)
CO[C@H]1C[C@@H]2CC[C@@H](C)[C@@](O)(O2)C(=O)C(=O)N2CCCC[C@H]2C(=O)O[C@H]([C@H](C)C[C@@H]2CC[C@@H](OCCO)[C@H](OC)C2)CC(=O)[C@H](C)/C=C(\C)[C@@H](O)[C@@H](OC)C(=O)[C@H](C)C[C@H](C)/C=C/C=C/C=C/1C [EVEROLIMUS]	–	–	–	–	Kd [9]: > 30 µM (inactive); Kd [1]: > 30 µM (inactive)
COCCNCc1ccc(-c2cc3nccc(Oc4ccc(NC(=S)NC(=O)Cc5ccc(F)cc5)cc4F)c3s2)nc1 [GLESATINIB]	–	> 30 µM (inactive)	> 30 µM (inactive)	–	–
O=C1NC(=O)/C(=C/c2ccc3nccc(-c4ccncc4)c3c2)S1 [GSK-1059615]	–	–	–	–	Kd [2]: > 30 µM (inactive); Kd [8]: > 30 µM (inactive); Kd [5]: > 30 µM (inactive)
Cn1cc(-c2ccc3nnc(C(F)(F)c4ccc5ncccc5c4)n3n2)cn1 [JNJ-38877605]	–	–	–	–	Kd [10]: > 30 µM (inactive); Kd [9]: > 30 µM (inactive)
COC(=O)[C@@]1(O)C[C@H]2O[C@]1(C)n1c3ccccc3c3c4c(c5c6ccccc6n2c5c31)C(=O)NC4 [K-252A]	0.041 µM	> 30 µM (inactive)	> 30 µM (inactive)	> 30 µM (inactive)	Kd [2]: > 30 µM (inactive); Kd [10]: > 30 µM (inactive); Kd [8]: > 30 µM (inactive)
COc1cc2nccc(Oc3ccc(NC(=O)NC4CC4)c(Cl)c3)c2cc1C(N)=O [LENVATINIB]	–	> 30 µM (inactive)	–	–	Kd [5]: > 30 µM (inactive)
Cc1c(F)cc(C(=O)NC2CC2)cc1-c1ccc(C(=O)NCC(C)(C)C)cn1 [LOSMAPIMOD]	> 30 µM (inactive)	–	–	> 30 µM (inactive)	–
Cn1cc(-c2ccc(F)c(C(F)(F)F)c2)nc1C1CCN(c2ncnc3[nH]ncc23)CC1 [LY-2584702]	–	–	–	> 30 µM (inactive)	–

Structure (SMILES)	Kd [3]	Kd [4]	Kd [6]	Kd [7]	other results
O=C(O)[C@]1(Cc2cccc(Nc3nccs3)n2)CC[C@@H](Oc2cccc(Cl)c2F)CC1 [MK-5108]	–	> 30 µM (inactive)	> 30 µM (inactive)	> 30 µM (inactive)	Kd [8]: > 30 µM (inactive); Kd [9]: > 30 µM (inactive); Kd [1]: > 30 µM (inactive); Kd [5]: 0.025 µM (active)
Cc1ccc(-n2nc(C(C)(C)C)cc2NC(=O)NCc2cc(F)ccc2Oc2ccc3c(cnn3CCO)c2)cc1 [PEXMETINIB]	2.81 µM	> 30 µM (inactive)	> 30 µM (inactive)	> 30 µM (inactive)	–
OCCn1cc(-c2cnc3nnn(Cc4ccc5ncccc5c4)c3n2)cn1 [PF-04217903]	> 30 µM (inactive)	> 30 µM (inactive)	> 30 µM (inactive)	> 30 µM (inactive)	Kd [9]: > 30 µM (inactive); Kd [1]: > 30 µM (inactive)
CNC(=O)c1ccc(C)c(-n2c(C)cc(OCc3ccc(F)cc3F)c(Br)c2=O)c1 [PH-797804]	–	–	–	> 30 µM (inactive)	Kd [9]: > 30 µM (inactive)
CN(C)C(=O)c1cc2cnc(Nc3ccc(N4CCNCC4)cn3)nc2n1C1CCCC1 [RIBOCICLIB]	–	–	> 30 µM (inactive)	–	–
COc1cc(OC)c(/C=C/S(=O)(=O)Cc2ccc(OC)c(NCC(=O)O)c2)c(OC)c1 [RIGOSERTIB]	–	–	–	> 30 µM (inactive)	Kd [9]: > 30 µM (inactive)
CNC(=O)CN1CCC(Oc2cc3c(Nc4cccc(Cl)c4F)ncnc3cc2OC)CC1 [SAPITINIB]	> 30 µM (inactive)	–	> 30 µM (inactive)	–	–
CN1CCC(CNc2ccc3ncc(-c4cccc(OC(F)(F)F)c4)n3n2)CC1 [SGI-1776]	> 30 µM (inactive)	> 30 µM (inactive)	–	–	–
O=C(Nc1cccc(Cl)c1)Nc1ncc(CCNc2ncnc3ccsc23)s1 [SNS-314]	–	–	> 30 µM (inactive)	–	Kd [10]: > 30 µM (inactive); Kd [1]: > 30 µM (inactive)
C[C@@H]1CN(Cc2ccc(F)cc2)[C@@H](C)CN1C(=O)c1cc2c(C(=O)C(=O)N(C)C)cn(C)c2cc1Cl [TALMAPIMOD]	–	> 30 µM (inactive)	–	> 30 µM (inactive)	–
CN1CCC(COc2cnc(-c3cccc(Cn4nc(-c5cccc(C#N)c5)ccc4=O)c3)nc2)CC1 [TEPOTINIB]	–	–	> 30 µM (inactive)	–	–
O=c1sn(-c2cccc3ccccc23)c(=O)n1Cc1ccccc1 [TIDEGLUSIB]	> 30 µM (inactive)	–	–	–	Kd [10]: > 30 µM (inactive); Kd [1]: > 30 µM (inactive)
COc1cc2nccc(Oc3ccc(NC(=O)Nc4cc(C)on4)c(Cl)c3)c2cc1OC [TIVOZANIB]	> 30 µM (inactive)	–	> 30 µM (inactive)	–	Kd [10]: > 30 µM (inactive)
CN1N=C(N)c2cn([C@@H]3O[C@H](COP(=O)(O)O)[C@@H](O)[C@H]3O)c3ncnc1c23 [TRICIRIBINE PHOSPHATE]	–	–	–	–	Kd [8]: > 30 µM (inactive); Kd [9]: > 30 µM (inactive)
CC(C)Nc1cc(-c2c[nH]c(C(=O)N[C@H](CO)c3cccc(Cl)c3)c2)c(Cl)cn1 [ULIXERTINIB]	> 30 µM (inactive)	> 30 µM (inactive)	> 30 µM (inactive)	–	Kd [10]: > 30 µM (inactive); Kd [8]: > 30 µM (inactive); Kd [1]: > 30 µM (inactive)
CCCS(=O)(=O)Nc1ccc(F)c(C(=O)c2c[nH]c3ncc(-c4ccc(Cl)cc4)cc23)c1F [VEMURAFENIB]	> 30 µM (inactive)	–	–	–	Kd [10]: > 30 µM (inactive); Kd [8]: > 30 µM (inactive); Kd [9]: > 30 µM (inactive); Kd [1]: > 30 µM (inactive); Kd [5]: > 30 µM (inactive)
CCn1c(=O)c(-c2cc[nH]n2)cc2c(C)nc(N)nc21 [VOXTALISIB]	–	–	–	> 30 µM (inactive)	Kd [1]: > 30 µM (inactive)
O=C(Nc1ccc(-c2ccnc(Nc3ccc(N4CCOCC4)cc3)n2)cc1)C1CCCN1 (configuration not stated) [XL-019]	> 30 µM (inactive)	> 30 µM (inactive)	–	> 30 µM (inactive)	Kd [2]: > 30 µM (inactive); Kd [9]: > 30 µM (inactive)
